Experimental data taken from US20080312306A1, “POLYMORPHS, SOLVATES, AND HYDRATE OF 5-(4'-FLUORO-2'-OXO-1',2'-DIHYDROSPIRO[CYCLOPROPANE-1,3'-INDOL]-5'-YL)-1-METHYL-1H-PYRROLE-2-CARBONITRILE” (Wyeth, priority 2007, published 2008).

What was measured:
Type in all cases: physicochemical
[1] = Hygroscopicity / water content by dynamic vapor sorption (DVS)
Excerpt: (§1) The inventors found several advantages of these new forms of 5-(4′-fluoro-2′-oxo-1′,2′-dihydrospiro[cyclopropane-1,3′-indol]-5′-yl)-1-methyl-1H-pyrrole-2-carbonitrile. […] In yet a further embodiment, samples of the hydrate of 5-(4′-fluoro-2′-oxo-1′,2′-dihydrospiro[cyclopropane-1,3′-indol]-5′-yl)-1-methyl-1H-pyrrole-2-carbonitrile were hygroscopic.
The hydrate has a different structure of the crystal lattice of 5-(4′-fluoro-2′-oxo-1′,2′-dihydrospiro[cyclopropane-1,3′-indol]-5′-yl)-1-methyl-1H-pyrrole-2-carbonitrile from the Form I described in the art as determined by XRD and DSC. Specifically, the hydrate contains water in the crystal lattice. Specifically, as evidenced by dynamic vapor sorption (DVS), the hydrate contains about 2.5% to about 5% water. In one embodiment, the hydrate contains about 2.5% water at 0% relative humidity (RH).

[2] = Solid-form stability (thermodynamic stability, slurrying in solvent, water, micronization, vacuum)
Excerpt: as §1
The hydrate of 5-(4′-fluoro-2′-oxo-1′,2′-dihydrospiro[cyclopropane-1,3′-indol]-5′-yl)-1-methyl-1H-pyrrole-2-carbonitrile is also stable under a variety of conditions. In one example, the hydrate is stable in water. In another example, the hydrate is stable under conditions of micronization. In a further example, the hydrate is stable under a vacuum for a period of at least about 48 hours.

[3] = Relative solubility of the crystallographic forms
Excerpt: as §1

| Structure (SMILES) | hygroscopicity [1] | water content (DVS) ([1]; at 0% relative humidity (RH)) | water content (DVS) ([1]; at 100% RH) | stability ([2]; in water) | period of stability under a vacuum ([2]; under a vacuum) | stability ([2]; under conditions of micronization) | thermodynamic stability ([2]; compared with polymorph Form I) | conversion to other polymorphs ([2]; if slurried in a solvent) | solubility ([3]; compared with other crystallographic forms) | solubility ([3]; compared with polymorph Form II) |
| --- | --- | --- | --- | --- | --- | --- | --- | --- | --- | --- |
| Cn1c(C#N)ccc1-c1ccc2c(c1F)C1(CC1)C(=O)N2 [hydrate, 5-(4′-fluoro-2′-oxo-1′,2′-dihydrospiro[cyclopropane-1,3′-indol]-5′-yl)-1-methyl-1H-pyrrole-2-carbonitrile] | hygroscopic | about 2.5% | about 4.75% | stable | at least 48 hours | stable | – | – | – | – |
| Cn1c(C#N)ccc1-c1ccc2c(c1F)C1(CC1)C(=O)N2 [polymorph Form II, 5-(4′-fluoro-2′-oxo-1′,2′-dihydrospiro[cyclopropane-1,3′-indol]-5′-yl)-1-methyl-1H-pyrrole-2-carbonitrile] | not hygroscopic | – | – | – | – | – | more thermodynamically stable | does not convert to other polymorphs | – | – |
| Cn1c(C#N)ccc1-c1ccc2c(c1F)C1(CC1)C(=O)N2 [polymorph Form III, 5-(4′-fluoro-2′-oxo-1′,2′-dihydrospiro[cyclopropane-1,3′-indol]-5′-yl)-1-methyl-1H-pyrrole-2-carbonitrile] | – | – | – | – | – | – | – | – | more soluble than other crystallographic forms | more soluble than polymorph Form II |
